Data on 13 molecules can be found in patent publication US8790719B2, “Phytocannabinoids in the treatment of cancer” (GW Pharma Limited, priority 2010, dated 2014).

In general, IC50 refers to the concentration that gives 50% inhibition. By EC50 is commonly meant the concentration giving half of the maximal effect.

Where two headings read alike, the source gives them in different places.

The subject of data set [1] is MDA-MB-231 breast cancer cell line. In words: Cell viability of breast cancer cells (Alamar blue assay). To be noted: 72 hours. It is filed as cell-based. The protocol:
Cells were seeded in presence of FBS in 6 wells multiwell and treated with increased concentrations of compounds for 72 hours. Cell viability was assessed by Alamar blue staining.
Isolated phytocannabinoids were tested on the MDA-MB-231 breast cancer cell line in order to determine whether phytocannabinoids were effective in other types of cancer other than prostate cancer. The different isolated phytocannabinoids chosen for this experiment were: CBGA, CBDA, CBDV, CBD, THCV and THC.
(Resazurin is reduced to fluorescent resorufin, in cell work by metabolically active cells.)

The next data set has as its target T1, GPR55 (Homo sapiens, UniProt Q9Y2T6).
T1 construct: expressed in transfected cells; host or cells: HEK cells (GPR55-HEK)
Briefly: ERK Alphascreen assay using GPR55-HEK cells. Type of data set: cell-based. From the text:
An ERK Alphascreen assay was undertaken using GPR55-HEK cells.

The test system of data set [2] is hormone-insensitive prostate cancer cell line (DU-145). Briefly: Chemioluminescence assay for caspase 3/7 release (apoptosis), DU-145. Type of data set: cell-based, human. Conditions: high dose (25 μM), FIG. 2. The protocol:
(§1) Two different concentrations of cannabinoids were tested; a low dose (10 μM) and a high dose (25 μM). The chemioluminescence that were recorded for each phytocannabinoid are detailed in FIG. 2.

The test system of data set [3] is hormone sensitive LNCaP cells. To be noted: 24-48 hours; cited from earlier work.
The target of data set [4] is T2, monoacylglyceride lipase (MAGL) (Homo sapiens, UniProt Q99685).
T2 sequence (Q99685 1-303): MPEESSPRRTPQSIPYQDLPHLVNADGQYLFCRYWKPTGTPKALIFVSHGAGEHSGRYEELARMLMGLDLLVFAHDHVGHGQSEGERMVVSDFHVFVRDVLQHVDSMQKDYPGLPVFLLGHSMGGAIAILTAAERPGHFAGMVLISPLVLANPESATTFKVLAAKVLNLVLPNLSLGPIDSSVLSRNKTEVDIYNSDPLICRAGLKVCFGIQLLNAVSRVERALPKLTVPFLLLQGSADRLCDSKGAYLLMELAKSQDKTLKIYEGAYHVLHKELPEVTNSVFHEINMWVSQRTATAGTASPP
In words: Inhibition of monoacylglyceride lipase (MAGL). It is filed as biochemical. The protocol:
(§2) The effects of the phytocannabinoid BDS THCA, CBN, CBGA, CBDA and CBCV were tested to determine whether they were able to inhibit the MAGL and DAGL enzymes which are able to hydrolyse the endogenous cannabinoid 2-AG to arachidonic acid and glycerol. The results generated from these experiments are detailed in Table 5.1 below.
For this experiment CBG BDS was used as this BDS was the easiest to purify and reconstitute. Four different test articles were used: CBG BDS, isolated CBG, CBG-free CBG BDS and CBG reconstituted BDS, whereby the CBG-free BDS (as prepared in Example 1) was spiked with isolated CBG at the same concentration of CBG as CBG BDS. Table 5.2 below details the data obtained.

The test system of another data set is LNCaP. In words: Cell vitality (MTT assay), LNCaP. It is filed as cell-based. To be noted: Homo sapiens, read-out: IC50 on cell vitality. As for the experimental part: (§3) Cells were seeded in presence of FBS in 6 wells multiwell with a density of 8×10^4 cells/well (DU-145) or 1×10^5 cells/well (LNCaP). After 7 hours, cells were starved of dihydrotestosterone (DHT) for 15 hours and treated with increased concentrations of compounds for 24 or 48 hours (absence of serum was maintained during the treatments). Cell viability was assessed by MTT staining.
(§4) Phytocannabinoid BDS and their respective isolated phytocannabinoids were tested in both the hormone-insensitive (DU-145) prostate cancer cells and hormone-sensitive (LNCaP) prostate cancer cells. Three different phytocannabinoids were chosen for this experiment: CBG BDS and isolated compound, CBC BDS and isolated compound and CBD BDS and isolated compound.
(§5) The experiment was repeated in the hormone-insensitive (DU-145) prostate cancer cells and hormone-sensitive (LNCaP) prostate cancer cells that had not been starved of DHT. Here just the CBG BDS and isolated CBG are illustrated in Table 7.2 below.
On the technique in general: Formazan colour is commonly taken as a measure of viable cells.

A further data set has as its system DU-145. In words: Cell vitality (MTT assay), DU-145. It is filed as cell-based. Conditions: Homo sapiens. As for the experimental part:
as §3, §4, §5

For data set [5], the system named is Aberrant crypt focus (ACF), polyps and tumours. In words: Colon carcinogenesis in the mouse induced by azoxymethane. Type of data set: in vivo. An excerpt:
Aberrant crypt focus (ACF), polyps and tumours were induced in the mouse by the carcinogenic substance azoxymethane. The phytocannabinoids were given (i.p.) to the mice three times per week for a period of three months. The COX-2 inhibitor celecoxib was used as a positive control.

The next data set has as its system Glioma cells. Briefly: Human glioma cell vitality (MTT assay). Type of data set: cell-based. Conditions: read-out: IC50 on glioma cell vitality. As for the experimental part:
Cells were seeded in presence of FBS in 6 wells multiwell with a density of 8×10^4 cells/well. Glioma cells were treated with increased concentrations of compounds and cell viability was assessed by MTT staining.
CBD BDS and isolated CBD, CBG and CBDV were tested.

Data set [6] relates to hormone-sensitive prostate cancer cell line (LNCaP). In words: Chemioluminescence assay for caspase 3/7 release (apoptosis), LNCaP. Type of data set: cell-based, human. Conditions: high dose (25 μM), FIG. 2. As for the experimental part: as §1
The target in data set [7] is T3, diacylglyceride lipase (DAGL) (Homo sapiens, UniProt Q9Y4D2).
T3 sequence (Q9Y4D2 1-1042): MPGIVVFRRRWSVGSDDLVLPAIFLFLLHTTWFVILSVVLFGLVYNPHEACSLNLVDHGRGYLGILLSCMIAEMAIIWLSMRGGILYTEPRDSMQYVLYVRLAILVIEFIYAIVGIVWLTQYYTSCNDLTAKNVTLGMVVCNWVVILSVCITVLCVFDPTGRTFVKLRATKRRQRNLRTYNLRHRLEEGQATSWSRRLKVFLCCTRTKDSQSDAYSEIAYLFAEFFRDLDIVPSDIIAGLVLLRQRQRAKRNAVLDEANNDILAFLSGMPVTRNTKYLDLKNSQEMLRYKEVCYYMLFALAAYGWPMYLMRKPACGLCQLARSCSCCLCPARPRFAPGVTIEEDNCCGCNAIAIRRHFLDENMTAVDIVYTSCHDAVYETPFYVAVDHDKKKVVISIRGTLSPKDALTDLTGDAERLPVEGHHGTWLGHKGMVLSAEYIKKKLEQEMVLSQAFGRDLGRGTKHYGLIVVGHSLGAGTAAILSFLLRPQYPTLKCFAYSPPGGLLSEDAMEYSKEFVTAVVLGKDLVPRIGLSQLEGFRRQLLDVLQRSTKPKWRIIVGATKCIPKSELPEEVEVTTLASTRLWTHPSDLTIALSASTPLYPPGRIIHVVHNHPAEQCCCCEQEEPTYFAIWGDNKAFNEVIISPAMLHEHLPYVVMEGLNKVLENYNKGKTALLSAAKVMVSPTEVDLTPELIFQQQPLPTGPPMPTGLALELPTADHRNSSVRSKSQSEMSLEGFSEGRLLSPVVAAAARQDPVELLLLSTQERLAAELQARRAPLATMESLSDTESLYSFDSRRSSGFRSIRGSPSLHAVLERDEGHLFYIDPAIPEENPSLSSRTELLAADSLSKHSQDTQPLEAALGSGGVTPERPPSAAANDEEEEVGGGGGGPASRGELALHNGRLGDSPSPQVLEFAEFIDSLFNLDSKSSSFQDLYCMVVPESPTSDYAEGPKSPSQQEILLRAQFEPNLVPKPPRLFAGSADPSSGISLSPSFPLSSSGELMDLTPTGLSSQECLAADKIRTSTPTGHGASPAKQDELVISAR
In words: Inhibition of diacylglyceride lipase (DAGL). Type of data set: biochemical. As for the experimental part: as §2

For a further data set, the system named is U87 glioma cells. In words: Viability of U87 glioma cells (MTT assay), THC, CBD, TMZ alone and combined. Type of data set: cell-based, human. To be noted: TMZ 100 μM alone, Table 12.2.
In data set [8] the test system is human glioma xenograft tumours. Briefly: Human glioma xenograft tumour volume. To be noted: TMZ (100 μM) alone; Table 13.2. More on the design: unit not given here. It is filed as in vivo. As for the experimental part: The phytocannabinoids were also tested with the TMZ as is detailed in Table 13.2 below.
Where [9] appears, read: DU-145, 24 h, read-out: IC50 on cell vitality.
The mark [10] stands for this setting: DU-145, 48 h, read-out: IC50 on cell vitality.
The mark [11] stands for this setting: at 50 μM, read-out: Max concentration tested (% inhibition), MAGL.
Where [12] appears, read: read-out: Max concentration tested (% inhibition), DAGL.

T1 sequence (Q9Y2T6 whole entry, species assumed): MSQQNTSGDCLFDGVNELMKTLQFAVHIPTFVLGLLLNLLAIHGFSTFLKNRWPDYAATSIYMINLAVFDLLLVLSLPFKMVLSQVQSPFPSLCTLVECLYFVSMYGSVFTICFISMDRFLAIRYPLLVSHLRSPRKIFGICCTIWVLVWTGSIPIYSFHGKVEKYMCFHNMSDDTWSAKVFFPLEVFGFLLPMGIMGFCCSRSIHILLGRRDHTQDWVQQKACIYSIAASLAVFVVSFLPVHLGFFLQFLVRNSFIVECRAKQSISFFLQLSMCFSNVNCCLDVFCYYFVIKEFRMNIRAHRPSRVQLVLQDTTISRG

For the molecule `CCCc1cc(O)c2c(c1)OC(C)(C)[C@@H]1CCC(C)=C[C@@H]21` [THCV, Tetrahydrocannabivarin], inhibition in data set [1] (Homo sapiens) was half-maximal at 6.5 µM (IC50). Further, the “Effect at GPR55” value on GPR55 was “Antagonist (at low concentrations)”. Moreover, in data set [2], the “pro-apoptotic effect (chemioluminescence, caspase 3/7 release)” value is listed as “apotosis levels over that of the control”.
Turning to `Cc1c(C(=O)c2cccc3ccccc23)c2cccc3c2n1[C@H](CN1CCOCC1)CO3` [WIN-55,212-2], the “inhibition of cell growth” value in [3] is “inhibition of cell growth”.
`CCCCCc1cc(O)c(C/C=C(\C)CCC=C(C)C)c(O)c1` [CBG, Cannabigerol] had an EC50 in [4] (Table 5.2, BDS vs isolated vs reconstituted) of 195 µM. In addition, the inhibition at 100 µM in data set [4] (Table 5.2, read-out: Max tested on MAGL % inhibition) turned out to be 31.5%. Moreover, the IC50 in the data set on LNCaP (24 h) was 10.8 µM; in the data set on LNCaP (48 h), 8.1 µM; with LNCaP, over 25 µM; in the data set on DU-145 (setting [9]), 11.8 µM; with DU-145 (setting [10]) it was 5.8 µM; with DU-145 (DU-145, read-out: IC50 on cell vitality), over 25 µM. In addition, in the data set on Glioma cells, the IC50 is 12.4 µM. Further, the “protective effect against the experimentally induced colon carcinogenesis” value in [5] (FIG. 6 a)) is “most statistically significant results”. Moreover, the “formation of ACF with 4 or more crypts” value in [5] (FIG. 6 b)) is given as “no ACF with greater than 4 crypts”. Also, in data set [5] (i.p. three times per week for three months; FIG. 5 c), FIG. 6 c)), the “numbers of tumours per animal” value is recorded as “no tumours were produced”.
With `CCCc1cc2c(c(O)c1C(=O)O)[C@@H]1C=C(C)CC[C@H]1C(C)(C)O2` [THCVA, Tetrahydrocannabivarinic acid], the entries for the “pro-apoptotic effect (chemioluminescence, caspase 3/7 release)” value in data set [6] and in data set [2] were “highest pro-apoptotic effect” and “highest pro-apoptotic effects”, respectively.
As for `CCCCCc1cc(O)c2c(c1)OC(C)(C)c1ccc(C)cc1-2` [CBN, Cannabinol], the IC50 in data set [4] is over 50 µM. The inhibition at 50 µM stood at 31.5% in data set [4] (setting [11]) and 26.9% in data set [7] (setting [12]).
Consider `CCCc1cc(O)c2c(c1)OC(C)(CCC=C(C)C)C=C2` (stereo not drawn) [CBCV], for which, in [4] (Table 5.1, read-out: MAG IC50), the IC50 was over 50 µM. Also, the figures for the inhibition at 50 µM in [4] (setting [11]) and in [7] (setting [12]) were 4.8% and 18.9%, respectively.
`C=C(C)[C@@H]1CCC(C)=C[C@H]1c1c(O)cc(CCC)cc1O` [CBDV, Cannabidivarin]: the results for the IC50 (in data set [1] (Homo sapiens); in the data set with Glioma cells) were 5 µM and 12.4 µM, respectively. Further, the “Effect at GPR55” value on GPR55 is recorded as “Antagonist”.
Regarding `CCCc1cc(O)c(C/C=C(\C)CCC=C(C)C)c(O)c1` [CBGV, Cannabigerol propyl variant], the “Effect at GPR55” value on GPR55 is on record as “Antagonist”.
For `C=C(C)[C@@H]1CCC(C)=C[C@H]1c1c(O)cc(CCCCC)c(C(=O)O)c1O` [CBDA, Cannabidiolic acid], the IC50 in [4] (Table 5.1, read-out: MAG IC50) is over 50 µM; in [1] (Homo sapiens), 3.9 µM. For the same molecule, the inhibition at 50 µM in data set [4] (setting [11]) was determined as 18.5%. In addition, at GPR55, the “Effect at GPR55” value is on record as “Antagonist”. For the same molecule, the inhibition at 100 µM in data set [7] (at 100 μM, read-out: Max concentration tested (% inhibition), DAGL) was 91.4%.
As for `CCCCCc1cc(O)c(C/C=C(\C)CCC=C(C)C)c(O)c1C(=O)O` [CBGA], the IC50 was over 50 µM in data set [4] (Table 5.1, read-out: MAG IC50); 2.2 µM in data set [1]; 30 µM in data set [7] (Table 5.1). Moreover, the “Max concentration tested (% inhibition), MAGL” value in [4] (at 50 μM) is on record as “(17.2%)”. Also, the “Effect at GPR55” value on GPR55 is recorded as “Inverse agonist”. Also, in data set [7] (at 100 μM), the “Max concentration tested (% inhibition), DAGL” value is given as “(67.5%)”.
On to `CCCCCc1cc(O)c2c(c1)OC(C)(CCC=C(C)C)C=C2` (stereo not drawn) [CBC, Cannabichromene], for which the IC50 came to 10.8 µM with LNCaP (24 h), 6 µM with LNCaP (48 h), 7.5 µM in the data set with DU-145 (setting [9]) and 5.6 µM with DU-145 (setting [10]).
Consider `Cn1nnc2c(C(N)=O)ncn2c1=O` [TMZ, temazolamide, reference compound], for which the “Cell Viability (%)” value with U87 glioma cells was determined as 82%. Further, in [8], the “Tumour volume (increase from day 1)” value was 4.1.
In [4], `CCCCCc1cc2c(c(O)c1C(=O)O)[C@@H]1C=C(C)CC[C@H]1C(C)(C)O2` [THCA, Tetrahydrocannabinolic acid] gave an IC50 of 46 µM. Moreover, the inhibition at 100 µM in data set [4] (read-out: Max concentration tested (% inhibition), MAGL) was 81.9%. Besides, in [7] (setting [12]), the inhibition at 50 µM stood at 79.3%.
